From US20150164762A1, “USE OF ETHANOLAMINE PHOSPHATE” (priority 2012, published 2015)

Test system: BEAS-2B
Experiment: Comprehensive gene expression analysis with Whole Human Genome DNA microarray after EP treatment
Format: cell-based
Protocol: Cells of the established normal human airway epithelial cell line BEAS-2B were used in the experiment. These cells were expansively cultured in 10% FBS RPMI-1640, and seeded at a density of 1×10^5/cm^2 on a 24-well plate. After 24 hours 0.1% FBS RPMI-1640 was substituted, and EP was administered to a final concentration of 0 or 1 mM (n=4). After 24 hours, the cells were used as the DNA microarray samples. RNA was extracted using a QIAGEN RNeasy Mini Kit. The DNA microarray test was performed using a Whole Human Genome DNA microarray 4×44K (Agilent), and the necessary labeling reagents and the like for the DNA microarray test were all from Agilent. The DNA microarray test data were analyzed statistically with GeneSpring (Agilent) dedicated analysis software, and gene function analysis (Gene Ontology (GO) analysis) was performed based on differential expression. The purpose of the GO analysis is to determine stochastically the degree to which gene sets with statistically significant differential expression correspond to known functional classification gene sets. […] The p-value is calculated according to the following formula.

NCCOP(=O)(O)O [EP, Ethanolamine phosphate]
expression of cytokines (1 mM EP, 24 h): reduced expression of many cytokines
R*: Ratio to control (AEN, probe A_23_P206077): 0.420 times
log2 [ratio] (AEN, probe A_23_P206077): −1.253
R*: Ratio to control (AGGF1, probe A_23_P250554): 1.523 times
log2 [ratio] (AGGF1, probe A_23_P250554): 0.607
R*: Ratio to control (AIFM2, probe A_32_P75094): 0.399 times
log2 [ratio] (AIFM2, probe A_32_P75094): −1.327
R*: Ratio to control (AIFM3, probe A_23_P258194): 0.590 times
log2 [ratio] (AIFM3, probe A_23_P258194): −0.761
R*: Ratio to control (ANXA2, probe A_23_P146644): 1.673 times
log2 [ratio] (ANXA2, probe A_23_P146644): 0.742
R*: Ratio to control (ANXA2, probe A_32_P94798): 1.614 times
log2 [ratio] (ANXA2, probe A_32_P94798): 0.691
R*: Ratio to control (APAF1, probe A_23_P36611): 0.420 times
log2 [ratio] (APAF1, probe A_23_P36611): −1.253
R*: Ratio to control (APPL1, probe A_24_P302833): 1.723 times
log2 [ratio] (APPL1, probe A_24_P302833): 0.785
R*: Ratio to control (ARHGAP24, probe A_23_P110151): 1.670 times
log2 [ratio] (ARHGAP24, probe A_23_P110151): 0.740
R*: Ratio to control (ARHGAP24, probe A_24_P388659): 1.745 times
log2 [ratio] (ARHGAP24, probe A_24_P388659): 0.803
R*: Ratio to control (ARHGEF6, probe A_23_P85024): 0.270 times
log2 [ratio] (ARHGEF6, probe A_23_P85024): −1.889
R*: Ratio to control (BAK1, probe A_23_P145357): 0.402 times
log2 [ratio] (BAK1, probe A_23_P145357): −1.313
R*: Ratio to control (BAX, probe A_23_P208706): 0.453 times
log2 [ratio] (BAX, probe A_23_P208706): −1.143
R*: Ratio to control (BAX, probe A_23_P346311): 0.511 times
log2 [ratio] (BAX, probe A_23_P346311): −0.969
R*: Ratio to control (BBC3, probe A_23_P382775): 0.315 times
log2 [ratio] (BBC3, probe A_23_P382775): −1.666
R*: Ratio to control (BBC3, probe A_24_P305312): 0.366 times
log2 [ratio] (BBC3, probe A_24_P305312): −1.452
R*: Ratio to control (BCAT1, probe A_24_P935986): 1.721 times
log2 [ratio] (BCAT1, probe A_24_P935986): 0.783
R*: Ratio to control (BCL2L11, probe A_24_P122921): 0.636 times
log2 [ratio] (BCL2L11, probe A_24_P122921): −0.652
R*: Ratio to control (BCL2L14, probe A_23_P128050): 0.594 times
log2 [ratio] (BCL2L14, probe A_23_P128050): −0.751
R*: Ratio to control (BCL10, probe A_23_P115286): 0.542 times
log2 [ratio] (BCL10, probe A_23_P115286): −0.883
R*: Ratio to control (BCL10, probe A_24_P19983): 0.571 times
log2 [ratio] (BCL10, probe A_24_P19983): −0.810
R*: Ratio to control (BIK, probe A_23_P404867): 0.298 times
log2 [ratio] (BIK, probe A_23_P404867): −1.748
R*: Ratio to control (BLOC1S2, probe A_23_P23960): 0.396 times
log2 [ratio] (BLOC1S2, probe A_23_P23960): −1.336
R*: Ratio to control (BLOC1S2, probe A_24_P295543): 0.384 times
log2 [ratio] (BLOC1S2, probe A_24_P295543): −1.381
R*: Ratio to control (BMP4, probe A_23_P54144): 1.820 times
log2 [ratio] (BMP4, probe A_23_P54144): 0.864
R*: Ratio to control (BNIP3, probe A_23_P138635): 0.374 times
log2 [ratio] (BNIP3, probe A_23_P138635): −1.418
R*: Ratio to control (BNIP3L, probe A_23_P134925): 0.633 times
log2 [ratio] (BNIP3L, probe A_23_P134925): −0.661
R*: Ratio to control (BTG1, probe A_23_P87560): 0.416 times
log2 [ratio] (BTG1, probe A_23_P87560): −1.265
R*: Ratio to control (C16orf5, probe A_23_P15247): 0.519 times
log2 [ratio] (C16orf5, probe A_23_P15247): −0.947
R*: Ratio to control (CASP1, probe A_23_P202978): 0.641 times
log2 [ratio] (CASP1, probe A_23_P202978): −0.642
R*: Ratio to control (CASP10, probe A_23_P209408): 0.552 times
log2 [ratio] (CASP10, probe A_23_P209408): −0.857
R*: Ratio to control (CASP10, probe A_24_P139993): 0.609 times
log2 [ratio] (CASP10, probe A_24_P139993): −0.716
R*: Ratio to control (CCBE1, probe A_23_P55544): 1.755 times
log2 [ratio] (CCBE1, probe A_23_P55544): 0.811
R*: Ratio to control (CCBE1, probe A_32_P171043): 1.890 times
log2 [ratio] (CCBE1, probe A_32_P171043): 0.918
R*: Ratio to control (CDKN1A, probe A_23_P59210): 0.439 times
log2 [ratio] (CDKN1A, probe A_23_P59210): −1.187
R*: Ratio to control (CDKN1A, probe A_24_P89457): 0.294 times
log2 [ratio] (CDKN1A, probe A_24_P89457): −1.768
R*: Ratio to control (CEBPB, probe A_23_P143242): 0.617 times
log2 [ratio] (CEBPB, probe A_23_P143242): −0.697
R*: Ratio to control (CEBPB, probe A_23_P411296): 0.383 times
log2 [ratio] (CEBPB, probe A_23_P411296): −1.385
R*: Ratio to control (CIDEC, probe A_23_P92025): 0.593 times
log2 [ratio] (CIDEC, probe A_23_P92025): −0.754
R*: Ratio to control (CKLF, probe A_23_P118061): 1.501 times
log2 [ratio] (CKLF, probe A_23_P118061): 0.586
R*: Ratio to control (CKLF, probe A_23_P206396): 1.601 times
log2 [ratio] (CKLF, probe A_23_P206396): 0.679
R*: Ratio to control (CKLF, probe A_24_P215804): 1.551 times
log2 [ratio] (CKLF, probe A_24_P215804): 0.633
R*: Ratio to control (CKS2, probe A_23_P71727): 1.510 times
log2 [ratio] (CKS2, probe A_23_P71727): 0.595
R*: Ratio to control (COL8A1, probe A_23_P69030): 1.999 times
log2 [ratio] (COL8A1, probe A_23_P69030): 0.999
R*: Ratio to control (COL8A1, probe A_23_P211762): 1.643 times
log2 [ratio] (COL8A1, probe A_23_P211762): 0.716
R*: Ratio to control (COL8A1, probe A_24_P139152): 1.703 times
log2 [ratio] (COL8A1, probe A_24_P139152): 0.768
R*: Ratio to control (DDIT3, probe A_23_P21134): 0.210 times
log2 [ratio] (DDIT3, probe A_23_P21134): −2.249
R*: Ratio to control (FGF9, probe A_23_P105803): 1.606 times
log2 [ratio] (FGF9, probe A_23_P105803): 0.684
R*: Ratio to control (GLI2, probe A_23_P500034): 2.060 times
log2 [ratio] (GLI2, probe A_23_P500034): 1.043
R*: Ratio to control (HAND2, probe A_23_P373521): 1.971 times
log2 [ratio] (HAND2, probe A_23_P373521): 0.979
R*: Ratio to control (IFI16, probe A_23_P217866): 0.585 times
log2 [ratio] (IFI16, probe A_23_P217866): −0.773
R*: Ratio to control (IFNG, probe A_23_P151294): 0.611 times
log2 [ratio] (IFNG, probe A_23_P151294): −0.710
R*: Ratio to control (IKBIP, probe A_23_P53467): 0.626 times
log2 [ratio] (IKBIP, probe A_23_P53467): −0.675
R*: Ratio to control (IKBIP, probe A_23_P303210): 0.468 times
log2 [ratio] (IKBIP, probe A_23_P303210): −1.095
R*: Ratio to control (IL1A, probe A_23_P72096): 0.216 times
log2 [ratio] (IL1A, probe A_23_P72096): −2.211
R*: Ratio to control (KNG1, probe A_32_P230808): 0.358 times
log2 [ratio] (KNG1, probe A_32_P230808): −1.484
R*: Ratio to control (LEPR, probe A_24_P231104): 1.659 times
log2 [ratio] (LEPR, probe A_24_P231104): 0.730
R*: Ratio to control (LOX, probe A_23_P122216): 1.637 times
log2 [ratio] (LOX, probe A_23_P122216): 0.711
R*: Ratio to control (MAP3K10, probe A_24_P284523): 0.570 times
log2 [ratio] (MAP3K10, probe A_24_P284523): −0.810
R*: Ratio to control (MAPRE2, probe A_23_P89835): 1.538 times
log2 [ratio] (MAPRE2, probe A_23_P89835): 0.621
R*: Ratio to control (MAPRE2, probe A_24_P193911): 1.666 times
log2 [ratio] (MAPRE2, probe A_24_P193911): 0.736
R*: Ratio to control (MMP2, probe A_23_P163787): 1.578 times
log2 [ratio] (MMP2, probe A_23_P163787): 0.658
R*: Ratio to control (MVC, probe A_24_P38363): 1.686 times
log2 [ratio] (MVC, probe A_24_P38363): 0.754
R*: Ratio to control (NLRP1, probe A_23_P89550): 0.483 times
log2 [ratio] (NLRP1, probe A_23_P89550): −1.048
R*: Ratio to control (NLRP1, probe A_24_P83615): 0.558 times
log2 [ratio] (NLRP1, probe A_24_P83615): −0.841
R*: Ratio to control (NR2F2, probe A_23_P88589): 1.662 times
log2 [ratio] (NR2F2, probe A_23_P88589): 0.733
R*: Ratio to control (NR2F2, probe A_24_P313354): 1.746 times
log2 [ratio] (NR2F2, probe A_24_P313354): 0.804
R*: Ratio to control (NR4A1, probe A_23_P128230): 0.302 times
log2 [ratio] (NR4A1, probe A_23_P128230): −1.727
R*: Ratio to control (NRP1, probe A_24_P135322): 1.664 times
log2 [ratio] (NRP1, probe A_24_P135322): 0.735
R*: Ratio to control (NRP1, probe A_24_P928052): 1.990 times
log2 [ratio] (NRP1, probe A_24_P928052): 0.993
R*: Ratio to control (NTF3, probe A_23_P360797): 0.492 times
log2 [ratio] (NTF3, probe A_23_P360797): −1.024
R*: Ratio to control (NTRK1, probe A_23_P34804): 0.261 times
log2 [ratio] (NTRK1, probe A_23_P34804): −1.936
R*: Ratio to control (OBSCN, probe A_24_P273157): 0.654 times
log2 [ratio] (OBSCN, probe A_24_P273157): −0.613
